Laboratory results: patent US5874445A, “(+) -α- (2,3-dimethoxyphenyl)-1-(2-(4-fluorephenyl) ethyl)-4-piepridinemethanol” (Merrell Pharmaceutical, Inc., priority 1997, dated 1999)
Read-outs that look alike come from different tables or passages of the source. Values belong to the compound of their own block, whether it stands above or below them.

Experiments:
5HT2 receptor = molecular target: T1, 5HT2 receptor (Mus musculus, UniProt P35363); test: (5-MeO-DMT) head twitch test; assay type: in vivo, mice; conditions: ip, read-out: ED50 FOR ABOLITION OF HEAD TWITCH
T1 construct: The administration of 5-methoxy-N,N-dimethyltryptamine 5-MeO-DMT to mice typically produces a characteristic head twitch in the mice; from tissue; host or cells: living mice (in vivo, endogenous receptor)
T1 sequence (P35363 whole entry): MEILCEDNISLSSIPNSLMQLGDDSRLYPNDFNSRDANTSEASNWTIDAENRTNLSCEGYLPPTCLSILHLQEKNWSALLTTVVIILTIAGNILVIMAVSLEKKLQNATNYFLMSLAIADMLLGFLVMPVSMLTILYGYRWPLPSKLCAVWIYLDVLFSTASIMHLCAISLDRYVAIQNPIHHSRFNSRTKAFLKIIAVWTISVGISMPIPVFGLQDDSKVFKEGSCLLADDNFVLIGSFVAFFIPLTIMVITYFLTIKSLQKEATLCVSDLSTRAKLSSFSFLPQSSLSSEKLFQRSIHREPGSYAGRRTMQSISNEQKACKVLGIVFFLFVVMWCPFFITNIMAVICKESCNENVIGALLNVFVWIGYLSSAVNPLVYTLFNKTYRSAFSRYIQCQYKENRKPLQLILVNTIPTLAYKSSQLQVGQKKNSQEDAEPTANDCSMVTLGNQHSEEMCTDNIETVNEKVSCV
Method: Psychopharmacol., Vol. 3, pages 89-92, (1979). The administration of 5-methoxy-N,N-dimethyltryptamine 5-MeO-DMT to mice typically produces a characteristic head twitch in the mice. In this test, the mice are administered 5-MeO-DMT and a test compound. An absence of head twitches in the mice is considered to be predictive of the ability of the test compound to antagonize the 5HT2 receptor in vivo.

coronary vessels = conditions: patients with stable angina, intracoronary infusion, McFadden et al, cited from earlier work
[1] = system: preference for both alcohol and cocaine; conditions: rodent model of drug abuse; Meert et al; cited from earlier work
thrombus formation = conditions: canine models; Bush et al., Drug Development Research, Vol. 7, 319-340 (1986); cited from earlier work
coronary vessel = conditions: patients with stable angina; Golino et al, NEJM 1991; 324:641-648; cited from earlier work
[2] = mice, 5-MeO-DMT induced head twitch

ED50 (5HT2 receptor; [2]): 3.28 mg/kg
SMILES: OC(c1ccccc1)C1CCN(CCc2ccccc2)CC1 (racemic) [Compound B racemic, α-phenyl-1-(2-phenylethyl)-4-piperidinemethanol]

SMILES: COc1cccc(C(O)C2CCN(CCc3ccc(F)cc3)CC2)c1OC (single isomer, unassigned) [Invention, (+)-α-(2,3-dimethoxyphenyl)-1-[2-(4-fluorophenyl)ethyl]-4-piperidinemethanol]
ED50 (5HT2 receptor): 0.03 mg/kg

SMILES: NCCc1c[nH]c2ccc(O)cc12 [serotonin]
anginal attacks during infusions (coronary vessels): experienced anginal attacks during these infusions
constriction of the coronary vessels (coronary vessels; all concentrations tested, NEJM 1991, 324:648-654): induced constriction of the coronary vessels in these patients at all concentrations tested

ED50 (5HT2 receptor; [2]): 0.87 mg/kg
SMILES: OC(c1ccccc1)C1CCN(CCc2ccccc2)CC1 (single isomer, unassigned) [Compound B (+)-isomer, α-phenyl-1-(2-phenylethyl)-4-piperidinemethanol]

SMILES: Cc1nc2sccn2c(=O)c1CCN1CCC(=C(c2ccc(F)cc2)c2ccc(F)cc2)CC1 [ritanserin]
preference for both alcohol and cocaine [1]: abolished the preference for both alcohol and cocaine

SMILES: COc1cccc(C(O)C2CCN(CCc3ccccc3)CC2)c1OC (racemic) [Compound C racemic, α-(2,3-dimethoxyphenyl)-1-(2-phenylethyl)-4-piperidinemethanol]
ED50 (5HT2 receptor): 2.04 mg/kg

SMILES: O=C(c1ccc(F)cc1)C1CCN(CCn2c(=O)[nH]c3ccccc3c2=O)CC1 [Ketanserin]
preventing thrombus formation (thrombus formation): extremely effective in preventing thrombus formation
coronary vessel constriction (coronary vessel): blocked coronary vessel constriction in patients with stable angina
